Values quoted from earlier work, collected in patent US7648957B2, “Nutritional and therapeutic composition of an insulin sensitizer and a peptide fraction” (DSM IP Assets B.V., priority 2002, dated 2010).

Columns and labels:
[1] = very high glucose levels
[2] = system: cell's response to insulin; conditions: on administration of the chemical, estimated

Substance: methylhydroxy chalcone polymer [MHCP]
- glucose levels in diabetic mice [1]: could normalise very high glucose levels
- rise of sensitivity to insulin [2]: around 20 fold
